# Experimental data reported in patent US10449156B2, “Controlled release system including a gas or volatile encapsulated in a polymeric support and a matrix system, a method of preparing the system, and their use” (priority 2014, dated 2019).
# Assays:
# Botrytis cinerea = Botrytis cinerea radial growth bioassay with volatile compounds, no direct contact; format: cell-based; conditions: for effect on B.c. radial growth: pure compound 6, 30 and 61 μL, four strains, PDA
# Description: PHBV and PEA microparticle synthesis was done by double emulsion/evaporation. Experimentally, 15 mg of PEA were added to 50 mg/mL PHBV solution in dichloromethane, and then 30 μL of distilled water. This mixture was emulsified with a homogenizer at 35,000 rpm during 30 seconds. To this emulsion, a 5% w/v polyvinyl alcohol was added, and it was homogenized at 35.000 rpm for 30 seconds. The result of this double emulsion was put in an orbital shaker for 12 hours at 100 rpm. Once the solvent evaporated, the microparticles were isolated by centrifugation, washed with distilled water and lyophilized. Subsequently, the assays described below were done.
# The experimental model consisted in testing in vitro both the pure and microencapsulated phenylethylalcohol (PEA) volatile compound effect in B.c. The reporting parameter was radial growth and the volatile compound doses were determined with in vitro assays (bioassays). To do this, four different Botrytis strains were exposed to the pure compound, but without direct contact between compound and microorganism.
# Bioassays were done in hermetic containers during 6 days at 4° C. (simulating storage conditions). It was previously determined that, for all the strains in study, they were able to cover almost completely the maximum container area (33 mm diameter), in 6 days. The hermetic container was assembled in such a way that there is no physical contact between the evaluated compounds and B.c, in any circumstances.
# Radial growth was quantified in three independent experimental groups, which were assayed using potato dextrose agar (PDA) as nutritive support and, after the established culture conditions, initial inoculum growth diameter was determined as 7 mm (disk with actively growing B.c. using PDA as support). The first group was assayed in the container, in absence of a volatile compound and was used as control group (n=4). The second group was assayed challenging the B.c. inoculum with different PEA quantities (6, 30 y 61 μL), separately, with the same culture conditions (n=4). Finally, the third group was assayed like the second group, but with PHBV microencapsulated PEA in defined concentrations (n=2).
# Botrytis cinerea spores = experiment: Botrytis cinerea spore (conidia) germination assay; format: cell-based; conditions: pure PEA; 14 hours at 4° C.; absorbance 570 nm
# Description: In this point, the PEA volatile compound effect was tested in B.c. spores germination. The assay consisted in inoculate B.c. spores in 100 μL of malt yeast nutritive media (ML, 0.3% malt and 0.2% yeast extract), using 40 μL of a B.c. spore suspension with a 10^5 spores/mL concentration. Resuspended spores in ML media were transferred to sterile multiwall plates (140 μL/well) and then these plates were put in a hermetic and sealed container during a definite time, in dark and at 4° C. The necessary time to detect maximum germination was experimentally determined by conducting a germination kinetic assay for each B.c. strain. Measurements were done every 2 hours up until 16 hours, thus finding the maximum germination between 14 and 16 hours. The methodology used in the laboratory consisted in a spore fixation/staining process in each well, using trichloroacetic acid and sulphododamyne B, that allowed for a direct correlation between the obtained absorbance values (at 570 nm) with germinated spore number. The first experimental group was assayed without volatile compounds and was used as control (n=4), the experiment was done in sealed hermetic containers at 4° C. for 14 hours (100% of spore germination).
SMILES,effect on B.c. radial growth (Botrytis cinerea; 6 days at 4° C.),"effect on B.c. radial growth, statistics (ANOVA, TUKEY, p<0.05) (Botrytis cinerea; 30 and 61 μL doses, all strains, 6 days at 4° C.)","B.c. growth at higher doses (Botrytis cinerea; doses higher than 61 μL, 6 days)",effect on Botrytis conidia germination (Botrytis cinerea spores)
"CCCCCC1CCCC(=O)O1 (stereo not drawn) [d-Lac, delta-decalactone]",does not present a statistically significative effect,–,–,–
"OCCc1ccccc1 [PEA, phenylethylalcohol]",has an inhibiting effect in all the assayed B.c. strains,statistically significant effect in all of the strains,not a measurable growth after 6 days,does not inhibit Botrytis conidia germination in the same way that it inhibited micellium growth
